From patent US20250019377A1 (JACOBIO PHARMACEUTICALS CO., LTD, priority 2021, published 2025)
“And” between values parts separate entries of the source, which are not always exact repeats. Identical values can stand only once. Like-named read-outs stand apart in the source and are kept apart here.

Assays:
[1] = target: T1, K-Ras G12V (Homo sapiens, UniProt P01116, G12V); experiment: biochemical
[2] = target: T1, K-Ras G12V; experiment: SOS1 catalyzed nucleotide exchange assay (GDP form K-Ras), K-Ras G12V; details: read-out: K-Ras G12V GDP Biochemical Activity (IC50)
[3] = target: T2, K-Ras G13D (Homo sapiens, UniProt P01116, G13D); experiment: biochemical
[4] = target: T2, K-Ras G13D; experiment: biochemical; remark: listed apart in the source
[5] = target: T3, K-Ras WT (Homo sapiens, UniProt P01116); experiment: SOS1 catalyzed nucleotide exchange assay (GDP form K-Ras), K-Ras WT; details: read-out: K-Ras WT GDP Biochemical Activity (IC50)
[6] = tested on: AGS cells (K-Ras G12D); experiment: 2D cell growth inhibition assay, AGS; format: cell-based; details: Homo sapiens, 144 h, 6 days, absolute IC50
[7] = tested on: NCI-H460 cells (K-Ras Q61H); experiment: 3D cell growth inhibition assay, NCI-H460; format: cell-based; details: Homo sapiens, 144 h, 6 days, absolute IC50
[8] = tested on: p-ERK in NCI-H358 cells (K-Ras G12C); experiment: Phospho-ERK1/2(THR202/TYR204) HTRF assay, NCI-H358; format: cell-based; details: Homo sapiens, 2 hours incubation
[9] = tested on: p-ERK in NCI-H460 cells (K-Ras Q61H); experiment: Phospho-ERK1/2(THR202/TYR204) HTRF assay, NCI-H460; format: cell-based; details: Homo sapiens, 2 hours incubation
[10] = tested on: AsPC-1 cells (K-Ras G12D); experiment: 2D cell growth inhibition assay, AsPC-1; format: cell-based; details: Homo sapiens, ASPC1, 144 h, AsPC-1, K-Ras G12D, 6 days, absolute IC50
[11] = tested on: TCC-PAN2 cells (K-Ras G12R); experiment: 3D cell growth inhibition assay, TCC-PAN2; format: cell-based; details: 144 h, 6 days, absolute IC50
[12] = tested on: p-ERK in MKN-1 cells (K-Ras WT amplification); experiment: Phospho-ERK1/2(THR202/TYR204) HTRF assay, MKN-1; format: cell-based; details: Homo sapiens; MKN-1, K-Ras WT, 2 hours incubation
[13] = tested on: p-ERK in TCC-PAN2 cells (K-Ras G12R); experiment: Phospho-ERK1/2(THR202/TYR204) HTRF assay, TCC-PAN2; format: cell-based; details: 2 hours incubation
[14] = tested on: MKN-1 cells (K-Ras WT); experiment: 3D cell growth inhibition assay, MKN-1; format: cell-based; details: Homo sapiens, 144 h, MKN-1, K-Ras WT, 6 days, absolute IC50
[15] = tested on: p-ERK in SW620 cells (K-Ras G12V); experiment: Phospho-ERK1/2(THR202/TYR204) HTRF assay, SW620; format: cell-based; details: Homo sapiens, SW-620, 2 h, 2 hours incubation
[16] = tested on: SW620 cells (K-Ras G12V); experiment: 2D cell growth inhibition assay, SW620; format: cell-based; details: Homo sapiens, SW-620, 144 h, 6 days, absolute IC50
[17] = tested on: NCI-H358 cells (K-Ras G12C)
[18] = tested on: p-ERK in AGS cells (K-Ras G12D); experiment: Phospho-ERK1/2(THR202/TYR204) HTRF assay, AGS; format: cell-based; details: Homo sapiens, 2 h, 2 hours incubation
[19] = tested on: NCI-H747 cells (K-Ras G13D)
[20] = tested on: p-ERK in NCI-H747 cells (K-Ras G13D)
[21] = tested on: Capan-2 cells (K-Ras G12V)
[22] = target: T3, K-Ras WT; experiment: biochemical

T1 sequence (P01116 1-169 isoform P01116-2 G12V): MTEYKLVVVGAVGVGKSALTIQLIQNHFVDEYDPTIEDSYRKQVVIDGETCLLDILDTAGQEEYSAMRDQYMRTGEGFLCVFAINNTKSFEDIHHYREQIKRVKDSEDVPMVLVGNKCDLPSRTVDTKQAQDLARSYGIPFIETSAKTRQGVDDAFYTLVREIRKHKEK
T3 sequence (P01116 1-169 isoform P01116-2): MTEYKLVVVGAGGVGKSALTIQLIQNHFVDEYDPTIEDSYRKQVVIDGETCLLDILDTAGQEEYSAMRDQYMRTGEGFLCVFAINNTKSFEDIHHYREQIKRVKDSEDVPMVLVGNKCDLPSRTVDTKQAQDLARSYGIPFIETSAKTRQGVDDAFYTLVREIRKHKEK
T2 sequence (P01116 1-169 isoform P01116-2 G13D): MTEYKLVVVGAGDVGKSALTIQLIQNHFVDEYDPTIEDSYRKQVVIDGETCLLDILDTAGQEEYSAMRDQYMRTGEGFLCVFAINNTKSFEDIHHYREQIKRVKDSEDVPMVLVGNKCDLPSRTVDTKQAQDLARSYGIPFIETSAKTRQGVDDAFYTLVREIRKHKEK

Compound | IC50 [1] | IC50 [2] | IC50 [3] [µM] | IC50 [4] [µM] | IC50 [5] | IC50 [6] [nM] | IC50 [10] [nM] | IC50 [15] [nM] | IC50 [16] [nM] | IC50 [18] [nM] | IC50 [19] [µM] | IC50 [20] [µM] | IC50 [22] [µM] | other results
C#Cc1c(F)ccc2cc(O)cc(-c3ncc4c(N5CCCO[C@H](CC#N)C5)nc(OC[C@@]56CCCN5C[C@H](F)C6)nc4c3F)c12 (single isomer, unassigned) | 2.07 µM | 0.0237 µM | > 0.1 | > 0.2 | 0.0602 µM |  |  |  |  |  |  |  |  | 
C#Cc1c(Cl)ccc2cc(O)cc(-c3ncc4c(N5CCCOCC5)nc(OC[C@@]56CCCN5C[C@H](F)C6)nc4c3F)c12 [Compound 39, 6-chloro-5-ethynyl-4-(8-fluoro-2-(((2R,7aS)-2-fluorotetrahydro-1H-pyrrolizin-7a(5H)-yl)methoxy)-4-(1,4-oxazepan-4-yl)pyrido[4,3-d]pyrimidin-7-yl)naphthalen-2-ol trifluoroacetic acid] |  |  |  |  |  | 2.09 | 61.2 | 3.36 | 9.66 |  |  |  |  | IC50 [7]: 125 nM; IC50 [8]: 1.38 nM; IC50 [9]: 9.92 nM; IC50 [11]: 949 nM; IC50 [12]: 9.92 nM; IC50 [13]: 156 nM; IC50 [14]: 7.34 nM
C#Cc1c(F)ccc2cc(O)cc(-c3nc(NC)c4c(N5CCCOCC5)nc(OC[C@@]56CCCN5C[C@H](F)C6)nc4c3F)c12 [Compound 53, 5-ethynyl-6-fluoro-4-(8-fluoro-2-(((2R,7aS)-2-fluorotetrahydro-1H-pyrrolizin-7a(5H)-yl)methoxy)-5-(methylamino)-4-(1,4-oxazepan-4-yl)pyrido[4,3-d]pyrimidin-7-yl)naphthalen-2-ol trifluoroacetic acid] |  |  |  |  |  | 9.17 | 88.2 | 6.18 | 19.4 | 2.66 | 0.034 | 0.00693 |  | IC50 [17]: 0.0472 µM; IC50 [7]: 24 nM; IC50 [8]: 3.86 nM; IC50 [9]: 17.5 nM; IC50 [11]: ≥ 1000 nM; IC50 [12]: 9.74 nM; IC50 [13]: 456 nM; IC50 [14]: 25.7 nM; IC50 [21]: 0.153 µM
C#Cc1c(F)ccc2cc(O)cc(-c3ccc4c(N5CCCOCC5)nc(OCC5(CN6CCOCC6)CC5)nc4c3F)c12 [Compound 20, 5-ethynyl-6-fluoro-4-(8-fluoro-2-((1-(morpholinomethyl)cyclopropyl)methoxy)-4-(1,4-oxazepan-4-yl)quinazolin-7-yl)naphthalen-2-ol trifluoroacetic acid] | 1.63 µM | 0.00881 µM |  |  | 0.0127 µM | 203 | 538 | 29.3 | 139 | 53 | 0.339 | 0.0282 |  | 
C#Cc1c(F)ccc2cc(O)cc(-c3ncc4c(N5CCCOCC5)nc(OCC5CNCCN5C)nc4c3F)c12 (centres unmarked) [Compound 96, 5-ethynyl-6-fluoro-4-(8-fluoro-2-((1-methyl-piperazin-2-yl)methoxy)-4-(1,4-oxazepan-4-yl)pyrido[4,3-d]pyrimidin-7-yl)naph-thalen-2-ol] | 2.77 µM | 0.0186 µM | > 0.1 | 0.114 | 0.0659 µM |  |  |  |  |  |  |  |  | 
C#Cc1c(F)ccc2cc(O)cc(-c3ncc4c(N5CCCOCC5)nc(OCC5CN(C(=O)C=C)CCN5C)nc4c3F)c12 (centres unmarked) [Compound 98, 1-(3-(((7-(8-ethynyl-7-fluoro-3-hydroxy-naphthalen-1-yl)-8-fluoro-4-(1,4-oxazepan-4-yl)pyrido[4,3-d]pyrimidin-2-yl)oxy)methyl)-4-methylpiperazin-1-yl)prop-2-en-1-one] | 8.19 µM | 0.0545 µM | > 0.1 | > 0.2 | 0.318 µM |  |  |  |  |  |  |  | > 5 | 
C#Cc1c(F)ccc2cc(O)cc(-c3ncc4c(N5CCCOCC5)nc(OCC5CC6CCN5CC6)nc4c3F)c12 (centres unmarked) [Compound 99, 5-ethynyl-6-fluoro-4-(8-fluoro-4-(1,4-oxa-zepan-4-yl)-2-(quinuclidin-2-ylmethoxy)pyrido[4,3-d]pyrimidin-7-yl)naphthalen-2-ol] | 2.91 µM | 0.0226 µM | > 0.1 | > 0.1 | 0.0343 µM |  |  |  |  |  |  |  |  | 
C#Cc1c(F)ccc2cc(O)cc(-c3ncc4c(N5CCOC[C@@H](OC)C5)nc(OC[C@@]56CCCN5C[C@H](F)C6)nc4c3F)c12 (single isomer, unassigned) [Compound 49A] | 5.62 µM | 0.011 µM | > 0.1 | 0.0247 | 0.0402 µM |  |  | 98.6 |  |  |  |  |  | 

The next lines start with results.

IC50 [1] | IC50 [2] | IC50 [3] [µM] | IC50 [4] [µM] | IC50 [5] | IC50 [6] [nM] | IC50 [10] [nM] | IC50 [15] [nM] | IC50 [16] [nM] | IC50 [18] [nM] | IC50 [19] [µM] | IC50 [20] [µM] | IC50 [22] [µM] | Compound | other results
 |  |  |  |  | 2.73 | 77.3 | 7.72 | 13.1 | 2.16 | 0.0104 | 0.00317 |  | C#Cc1c(C)ccc2cc(O)cc(-c3ncc4c(N5CCCOCC5)nc(OC[C@@]56CCCN5C[C@H](F)C6)nc4c3F)c12 [Compound 38, 5-ethynyl-4-(8-fluoro-2-(((2R,7aS)-2-fluorotetrahydro-1H-pyrrolizin-7a(5H)-yl)methoxy)-4-(1,4-oxazepan-4-yl)pyrido[4,3-d]pyrimidin-7-yl)-6-methylnaphthalen-2-ol trifluoroacetic acid] | IC50 [17]: 0.0136 µM; IC50 [7]: 159 nM; IC50 [8]: 2.23 nM; IC50 [9]: 14.9 nM; IC50 [11]: ≥ 1000 nM; IC50 [12]: 10.6 nM; IC50 [13]: 218 nM; IC50 [14]: 10 nM; IC50 [21]: 0.0578 µM
0.298 µM | 0.0027 µM |  | 0.00218 | 0.00256 µM | 25.5 | 218 | 95.6 | 120 | 7.7 |  |  | 0.194 | C#Cc1c(F)ccc2cc(O)cc(-c3ncc4c(N5CCOCC(C)(F)C5)nc(OC[C@@]56CCCN5C[C@H](F)C6)nc4c3F)c12 (stereo partly drawn) [Compound 101, 5-ethynyl-6-fluoro-4-(8-fluoro-4-(6-fluoro-6-methyl-1,4-oxazepan-4-yl)-2-(((2R,7aS)-2-fluorotetrahydro-1H-pyrrolizin-7a(5H)-yl)methoxy)pyrido[4,3-d]pyrimidin-7-yl)naphthalen-2-ol] | 
2.88 µM and 2.03 µM | 0.0199 µM and 0.00442 µM | > 0.1 | > 0.2 | 0.056 µM and 0.0135 µM |  |  | 51.6 | 182 |  |  |  | 0.68 | C#Cc1c(F)ccc2cc(O)cc(-c3ncc4c(N5CCC6CC5CO6)nc(OC[C@@]56CCCN5C[C@H](F)C6)nc4c3F)c12 (some centres unmarked) [Compound 93] | 
 |  |  |  |  | 51.9 | 1350 | 135 | 61.4 | 10.2 | 0.126 | 0.0607 |  | C#Cc1c(F)ccc2cc(O)cc(-c3ncc4c(N5CCCOCC5)nc(OCC56CCCN5CCC6)nc4c3F)c12 [Compound 21, 5-ethynyl-6-fluoro-4-(8-fluoro-4-(1,4-oxazepan-4-yl)-2-((tetrahydro-1H-pyrrolizin-7a(5H)-yl)methoxy)pyrido[4,3-d]pyrimidin-7-yl)naphthalen-2-ol trifluoroacetic acid] | 
0.552 µM | 0.00077 µM | > 0.1 | > 0.1 | 0.002 µM | 41.2 | 428 | 19.9 | 54.5 | 62.2 |  |  | 0.144 | C#Cc1c(F)ccc2cc(O)cc(-c3ncc4c(N5CCOC[C@H](OC)C5)nc(OC[C@@]56CCCN5C[C@H](F)C6)nc4c3F)c12 (single isomer, unassigned) [Compound 49B] | 
